From PubChem BioAssay AID330 (DTP/NCI, 2004)
“And” between values parts separate entries of the source, which are not always exact repeats. Equal values may be shown once. Toxic doses and inconclusive results are not listed. Rule for the calls: active = survival T/C of 150% or more; inactive = T/C below 125% in these data.

Tested on: P388 leukemia ip, CD2F1 mice, survival T/C
Assay: NCI In Vivo Anticancer Drug Screen. Data for tumor model P388 Leukemia (intraperitoneal) in CD2F1 (CDF1) mice
Conditions: endpoint: median survival time, higher = longer survival
In short: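 Mice carrying the transplanted tumor received test compound or vehicle. Survival was recorded in each group, and the value is the treated-group measurement divided by that of the vehicle-treated control group.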

[1] = dose: 25.0 mg/kg/injection, schedule: Q01DX009 (ip), vehicle: Klucel (hydroxypropylcellulose) (HPC)
[2] = dose: 50.0 mg/kg/injection, schedule: Q01DX009 (ip), vehicle: Klucel (hydroxypropylcellulose) (HPC)
[3] = dose: 100.0 mg/kg/injection, schedule: Q01DX009 (ip), vehicle: Klucel (hydroxypropylcellulose) (HPC)
[4] = dose: 200.0 mg/kg/injection, schedule: Q01DX009 (ip), vehicle: saline with Tween-80
[5] = dose: 50.0 mg/kg/injection, schedule: Q01DX005 (ip), vehicle: saline with Tween-80
[6] = dose: 100.0 mg/kg/injection, schedule: Q01DX005 (ip), vehicle: saline with Tween-80
[7] = dose: 200.0 mg/kg/injection, schedule: Q01DX005 (ip), vehicle: saline with Tween-80
[8] = dose: 50.0 mg/kg/injection, schedule: Q01DX009 (ip), vehicle: saline
[9] = dose: 100.0 mg/kg/injection, schedule: Q01DX009 (ip), vehicle: saline
[10] = dose: 6.25 mg/kg/injection, schedule: Q01DX005 (ip), vehicle: water
[11] = dose: 12.5 mg/kg/injection, schedule: Q01DX005 (ip), vehicle: water
[12] = dose: 25.0 mg/kg/injection, schedule: Q01DX005 (ip), vehicle: water
[13] = dose: 50.0 mg/kg/injection, schedule: Q01DX005 (ip), vehicle: water

Measured: T/C

NC(CSC(c1ccccc1)(c1ccccc1)c1ccccc1)C(=O)O (stereo not given)
inactive: dose: 1.56 mg/kg/injection, schedule: Q01DX009 (ip), vehicle: saline with Tween-80 108 % of control | dose: 3.12 mg/kg/injection, schedule: Q01DX009 (ip), vehicle: Klucel (hydroxypropylcellulose) (HPC) 86 % of control | dose: 6.25 mg/kg/injection, schedule: Q01DX009 (ip), vehicle: Klucel (hydroxypropylcellulose) (HPC) 121 % of control and 90 % of control | dose: 6.25 mg/kg/injection, schedule: Q01DX009 (ip), vehicle: saline with Tween-80 119 % of control | dose: 6.25 mg/kg/injection, schedule: Q01DX009 (ip), vehicle: water 110 % of control and 118 % of control | dose: 12.5 mg/kg/injection, schedule: Q01DX009 (ip), vehicle: Klucel (hydroxypropylcellulose) (HPC) 92 % of control | dose: 12.5 mg/kg/injection, schedule: Q01DX009 (ip), vehicle: water 118 % of control | dose: 20.0 mg/kg/injection, schedule: Q01DX001 (ip), vehicle: water 104 % of control | dose: 25.0 mg/kg/injection, schedule: Q01DX009 (oral), vehicle: saline with Tween-80 123 % of control | dose: 40.0 mg/kg/injection, schedule: Q01DX001 (ip), vehicle: water 111 % of control | dose: 50.0 mg/kg/injection, schedule: Q01DX009 (oral), vehicle: saline with Tween-80 119 % of control | dose: 80.0 mg/kg/injection, schedule: Q01DX001 (ip), vehicle: water 111 % of control | [3] 100 % of control
active: [1] 163 % of control | dose: 25.0 mg/kg/injection, schedule: Q01DX009 (ip), vehicle: water 168 % of control | dose: 40.0 mg/kg/injection, schedule: Q01DX009 (ip), vehicle: water 168 % of control and 186 % of control | [2] 192 % of control | dose: 50.0 mg/kg/injection, schedule: Q01DX009 (ip), vehicle: water 159 % of control and 163 % of control and 183 % of control | dose: 66.0 mg/kg/injection, schedule: Q04DX003 (ip), vehicle: Klucel (hydroxypropylcellulose) (HPC) 225 % of control | dose: 100.0 mg/kg/injection, schedule: Q01DX009 (oral), vehicle: saline with Tween-80 153 % of control | dose: 100.0 mg/kg/injection, schedule: Q04DX003 (ip), vehicle: Klucel (hydroxypropylcellulose) (HPC) 175 % of control | [4] 167 % of control and 175 % of control
180 % of control [middle of 5 runs]: dose: 50.0 mg/kg/injection, schedule: Q01DX009 (ip), vehicle: saline with Tween-80

C[CH2][Sn]([Cl])([Cl])[CH2]C
active: dose: 25.0 mg/kg/injection, schedule: Q04DX003 (ip), vehicle: saline 153 % of control
inactive: dose: 1.56 mg/kg/injection, schedule: Q04DX003 (ip), vehicle: saline 104 % of control | dose: 3.12 mg/kg/injection, schedule: Q04DX003 (ip), vehicle: saline 111 % of control and 113 % of control and 116 % of control | dose: 6.25 mg/kg/injection, schedule: Q04DX003 (ip), vehicle: saline 118 % of control [middle of 5 runs] | dose: 12.5 mg/kg/injection, schedule: Q04DX003 (ip), vehicle: saline 121 % of control and 101 % of control and 115 % of control

CC(=O)Nc1ccc2cc(-c3ccc(Cl)cc3)c3nnnn3c2n1
inactive: [5] 96 % of control | [6] 94 % of control | [7] 93 % of control

O=C(O)C1CCCCC1c1c2ccc(=O)cc-2oc2cc(O)ccc12 (stereo not given)
inactive: dose: 100.0 mg/kg/injection, schedule: Q01DX009 (ip), vehicle: saline with Tween-80 90 % of control | [4] 95 % of control | dose: 400.0 mg/kg/injection, schedule: Q01DX009 (ip), vehicle: saline with Tween-80 100 % of control

O=c1oc(-c2cccc(C(Cl)Cl)c2)ns1
inactive: [3] 112 % of control | dose: 200.0 mg/kg/injection, schedule: Q01DX009 (ip), vehicle: Klucel (hydroxypropylcellulose) (HPC) 107 % of control | dose: 400.0 mg/kg/injection, schedule: Q01DX009 (ip), vehicle: Klucel (hydroxypropylcellulose) (HPC) 105 % of control

O=Nc1ccc2ccccc2c1O
inactive: dose: 12.5 mg/kg/injection, schedule: Q01DX001 (ip), vehicle: Klucel (hydroxypropylcellulose) (HPC) 103 % of control | dose: 25.0 mg/kg/injection, schedule: Q01DX001 (ip), vehicle: Klucel (hydroxypropylcellulose) (HPC) 108 % of control | dose: 50.0 mg/kg/injection, schedule: Q01DX001 (ip), vehicle: Klucel (hydroxypropylcellulose) (HPC) 111 % of control

CO[C@H]1[C@H]2OC(C)(C)O[C@H]2O[C@H]1/C=C1\CC(=O)NC1=O
inactive: [8] 111 % of control | dose: 50.0 mg/kg/injection, schedule: Q01DX009 (ip), vehicle: suspension in saline 96 % of control | [9] 116 % of control | dose: 100.0 mg/kg/injection, schedule: Q01DX009 (ip), vehicle: suspension in saline 104 % of control | dose: 200.0 mg/kg/injection, schedule: Q01DX009 (ip), vehicle: suspension in saline 110 % of control

[Cl][Pt][Cl].[NH-]C(CO)C(=O)O (stereo not given)
active: [13] 153 % of control
inactive: [10] 119 % of control | [11] 113 % of control | [12] 122 % of control

OCCCNc1nc2cc(Cl)ccc2o1
inactive: dose: 60.0 mg/kg/injection, schedule: Q01DX005 (ip), vehicle: saline with Tween-80 119 % of control | dose: 120.0 mg/kg/injection, schedule: Q01DX005 (ip), vehicle: saline with Tween-80 103 % of control | dose: 240.0 mg/kg/injection, schedule: Q01DX005 (ip), vehicle: saline with Tween-80 100 % of control

c1ccc2nc(N=Nc3cnc4ccccc4n3)cnc2c1
inactive: dose: 12.5 mg/kg/injection, schedule: Q01DX001 (ip), vehicle: saline with Tween-80 100 % of control and 93 % of control and 94 % of control | dose: 12.5 mg/kg/injection, schedule: Q01DX005 (ip), vehicle: saline with Tween-80 94 % of control | dose: 25.0 mg/kg/injection, schedule: Q01DX001 (ip), vehicle: saline with Tween-80 99 % of control and 94 % of control | dose: 25.0 mg/kg/injection, schedule: Q01DX005 (ip), vehicle: saline with Tween-80 94 % of control | dose: 50.0 mg/kg/injection, schedule: Q01DX001 (ip), vehicle: saline with Tween-80 100 % of control and 86 % of control and 97 % of control | [5] 97 % of control

CCN(CC)CCNC(=O)c1cc(Cl)c(N)cc1OC
inactive: dose: 3.12 mg/kg/injection, schedule: Q01DX005 (ip), vehicle: water 100 % of control and 105 % of control | [10] 108 % of control and 95 % of control | [11] 104 % of control and 105 % of control | [12] 104 % of control and 107 % of control | [13] 103 % of control and 111 % of control and 122 % of control | dose: 100.0 mg/kg/injection, schedule: Q01DX005 (ip), vehicle: water 100 % of control and 106 % of control and 117 % of control

CCOC(=O)N1CC2C=CC1C(C(C)=O)C2 (stereo not given)
inactive: [8] 110 % of control | [9] 109 % of control | dose: 200.0 mg/kg/injection, schedule: Q01DX009 (ip), vehicle: saline 109 % of control

S=C1N(c2ccc(Br)cc2)C2=Nc3ccccc3SC(=C2N=Nc2ccc(Br)cc2)N1c1ccc(Cl)cc1
inactive: [5] 93 % of control | [6] 86 % of control | [7] 91 % of control

COc1ccc2c3c1O[C@H](c1ccc(O)cc1)[C@H]3[N+](C)(C)CC2
inactive: dose: 6.25 mg/kg/injection, schedule: Q01DX005 (ip), vehicle: Klucel (hydroxypropylcellulose) (HPC) 107 % of control | dose: 12.5 mg/kg/injection, schedule: Q01DX005 (ip), vehicle: Klucel (hydroxypropylcellulose) (HPC) 110 % of control | dose: 25.0 mg/kg/injection, schedule: Q01DX005 (ip), vehicle: Klucel (hydroxypropylcellulose) (HPC) 110 % of control | dose: 50.0 mg/kg/injection, schedule: Q01DX005 (ip), vehicle: Klucel (hydroxypropylcellulose) (HPC) 103 % of control

Cc1[nH]c2c(-c3ccccc3)c3cc(Cl)ccc3nc2c1C(=O)O
inactive: [1] 92 % of control | [2] 89 % of control | [3] 86 % of control

O=S(=O)(O)c1ccc(/C2=c3\cc/c([n-]3)=C(\c3ccc(S(=O)(=O)O)cc3)c3ccc([n-]3)/C(c3ccc(S(=O)(=O)O)cc3)=c3/cc/c([n-]3)=C(\c3ccc(S(=O)(=O)O)cc3)c3ccc2[n-]3)cc1.[Zn]
inactive: dose: 0.98 mg/kg/injection, schedule: Q01DX009 (ip), vehicle: saline with Tween-80 103 % of control and 111 % of control | dose: 1.95 mg/kg/injection, schedule: Q01DX009 (ip), vehicle: saline with Tween-80 100 % of control and 104 % of control | dose: 3.9 mg/kg/injection, schedule: Q01DX009 (ip), vehicle: saline with Tween-80 99 % of control and 114 % of control | dose: 7.8 mg/kg/injection, schedule: Q01DX009 (ip), vehicle: saline with Tween-80 114 % of control | dose: 15.62 mg/kg/injection, schedule: Q01DX009 (ip), vehicle: saline with Tween-80 100 % of control and 112 % of control

CCCCN(CCCC)CC(N=O)c1cc(-c2ccc(Cl)c(Cl)c2)nc2c(Cl)cc(Cl)cc12 (stereo not given)
inactive: [5] 108 % of control | [6] 111 % of control | [7] 107 % of control
